Common to all, as to assay type: functional, cell-based
One test deals with HCT-116. Briefly: Antiproliferative activity against human HCT-116 cells incubated for 48 hrs by MTT assay. The following applies: HCT-116, 48 h.
Another test has as its system EBC-1. Description: Antiproliferative activity against human EBC-1 cells incubated for 48 hrs by MTT assay. The following applies: EBC-1, 48 h. (In general: Formazan colour is commonly taken as a measure of viable cells.)
For another test, the system named is NCI-H1581. Description: Antiproliferative activity against human NCI-H1581 cells incubated for 48 hrs by MTT assay. The following applies: NCI-H1581, 48 h.

Molecules are shown by their SMILES. Bounds are passed on as bounds.

Broadly, the IC50 is the concentration that inhibits the measured activity by half. Lower therefore signals greater potency in that assay. Take `O=C(NC1CCSSC1)/C(Cc1ccc(O)cc1)=N/O` (stereo not given): the 50% inhibitory concentration (IC50) in the test on HCT-116, with EBC-1 and with NCI-H1581 was over 10 µM each time.

`O=C(NCCSSCCNC(=O)/C(Cc1ccc[nH]1)=N/O)/C(Cc1ccc[nH]1)=N/O`: the IC50 with HCT-116, with EBC-1 and with NCI-H1581 was over 10 µM in each case.

As for `O=C(NC1CC[Se]SC1)/C(Cc1ccc(Cl)s1)=N/O` (stereo not given), the IC50 with HCT-116 was over 10 µM; with EBC-1 it was over 10 µM; in the test on NCI-H1581 it was 1.1 µM.

Turning to `O=C(NC1CC[Se][Se]C1)/C(Cc1cccc(F)c1)=N/O` (stereo not given), the IC50 with HCT-116, with EBC-1 and with NCI-H1581 was over 10 µM in each case.

Turning to `O=C(NC1C[Se][Se]C1)/C(Cc1ccc(O)cc1)=N/O`, the concentration for half-maximal inhibition (IC50) in the test on HCT-116, in the test on EBC-1 and in the test with NCI-H1581 was over 10 µM each time.

In the case of `O=C(NC1CCS[Se]C1)/C(Cc1ccc(Cl)s1)=N/O` (stereo not given), the IC50 in the test with HCT-116 is over 10 µM; in the test with EBC-1, over 10 µM; in the test with NCI-H1581, 2.46 µM.

Turning to `O=C(NCCSSCCNC(=O)/C(Cc1ccc(Cl)s1)=N/O)/C(Cc1ccc(Cl)s1)=N/O`, the IC50 with HCT-116 was 5.48 µM; with EBC-1, over 10 µM; with NCI-H1581 it was 4.02 µM.

Turning to `O=C(NC1CS[Se]C1)/C(Cc1ccc(O)c(Br)c1)=N/O` (stereo not given), the IC50 in the test on HCT-116 stood at 1.53 µM; in the test with EBC-1, 3.31 µM; in the test with NCI-H1581, 0.93 µM.

Turning to `O=C(NC1CCS[Se]C1)/C(Cc1ccc(Br)s1)=N/O` (stereo not given), the IC50 is over 10 µM with HCT-116, over 10 µM in the test on EBC-1 and 3.6 µM with NCI-H1581.

Regarding `O=C(NC1CSSC1)/C(Cc1ccc(O)c(Br)c1)=N/O`, the results for the IC50 with HCT-116, in the test with EBC-1 and with NCI-H1581 were 6.02 µM, over 10 µM and over 10 µM, respectively.

Turning to `O=C(NC1CCSSC1)/C(Cc1cccc(F)c1)=N/O` (stereo not given), the concentration for half-maximal inhibition (IC50) with HCT-116, in the test on EBC-1 and in the test on NCI-H1581 was over 10 µM throughout.

With `O=C(NC1CSSC1)/C(Cc1ccc(O)cc1)=N/O`, the IC50 in the test on HCT-116 is 9.67 µM; in the test with EBC-1, over 10 µM; with NCI-H1581, over 10 µM.

For `O=C(NCCSSCCNC(=O)/C(Cc1ccsc1)=N/O)/C(Cc1ccsc1)=N/O`, the values for the IC50 with HCT-116, in the test with EBC-1 and in the test on NCI-H1581 were 8.97 µM, over 10 µM and over 10 µM, respectively.

Turning to `CC(C)(CNC(=O)/C(Cc1ccc(O)c(Br)c1)=N/O)SSC(C)(C)CNC(=O)/C(Cc1ccc(O)c(Br)c1)=N/O`, the IC50 in the test with HCT-116 was 5.53 µM; in the test on EBC-1, over 10 µM; in the test with NCI-H1581 it was over 10 µM.

With `O=C(NCC[Se][Se]CCNC(=O)/C(Cc1ccc(Cl)s1)=N/O)/C(Cc1ccc(Cl)s1)=N/O`, the IC50 was found to be 0.5 µM in the test with HCT-116, 1.36 µM with EBC-1 and 0.28 µM in the test with NCI-H1581.

As for `N#Cc1ccc(COc2ccc(C/C(=N\O)C(=O)NC3CSSC3)cc2)cc1`, the IC50 with HCT-116, in the test on EBC-1 and with NCI-H1581 was over 10 µM throughout.

For the compound `Cc1ccc(C/C(=N\O)C(=O)NCCSSCCNC(=O)/C(Cc2ccc(C)o2)=N/O)o1`, the IC50 was 6.9 µM in the test on HCT-116, over 10 µM with EBC-1 and over 10 µM with NCI-H1581.

Turning to `O=C(NC1CS[Se]C1)/C(Cc1ccc(O)cc1)=N/O` (stereo not given), the IC50 came out at 3.3 µM in the test with HCT-116, 3.47 µM in the test with EBC-1 and 0.84 µM with NCI-H1581.

Take `O=C(NC1CSSC1)/C(Cc1cccc(F)c1)=N/O`: the 50% inhibitory concentration (IC50) in the test with HCT-116, in the test with EBC-1 and with NCI-H1581 was over 10 µM throughout.

For the compound `O=C(NC1CCS[Se]C1)/C(Cc1ccc(O)cc1)=N/O` (stereo not given), the IC50 was over 10 µM in the test on HCT-116, over 10 µM in the test on EBC-1 and 2.24 µM with NCI-H1581.

Consider `O=C(NCCSSCCNC(=O)/C(Cc1ccc(Br)s1)=N/O)/C(Cc1ccc(Br)s1)=N/O`, for which the 50% inhibitory concentration (IC50) is 2.22 µM in the test on HCT-116, over 10 µM in the test on EBC-1 and 4.17 µM with NCI-H1581.

Consider `O=C(NC1C[Se][Se]C1)/C(Cc1ccc(O)c(Br)c1)=N/O`, for which the half-maximal inhibitory concentration (IC50) with HCT-116, in the test with EBC-1 and in the test with NCI-H1581 was over 10 µM throughout.

`O=C(NCC[Se][Se]CCNC(=O)/C(Cc1cccs1)=N/O)/C(Cc1cccs1)=N/O`: the IC50 worked out at 0.19 µM in the test with HCT-116, 1.13 µM in the test on EBC-1 and 0.16 µM in the test on NCI-H1581.

Take `O=C(NC1CCSSC1)/C(Cc1ccc(O)c(Br)c1)=N/O` (stereo not given): the IC50 in the test with HCT-116, in the test on EBC-1 and in the test with NCI-H1581 was over 10 µM in each case.

Turning to `O=C(NCCSSCCNC(=O)/C(Cc1ccc(O)cc1)=N/O)/C(Cc1ccc(O)cc1)=N/O`, 6.57 µM corresponded to half-maximal inhibition with HCT-116 (IC50).

As for `O=C(NCCSSCCNC(=O)/C(Cc1ccco1)=N/O)/C(Cc1ccco1)=N/O`, the IC50 in the test with HCT-116, with EBC-1 and in the test on NCI-H1581 was over 10 µM throughout.

On to `O=C(NC1CC[Se][Se]C1)/C(Cc1ccc(O)cc1)=N/O` (stereo not given), for which the IC50 in the test on HCT-116, in the test with EBC-1 and in the test on NCI-H1581 was over 10 µM in each case.

Regarding `O=C(NC1CC[Se]SC1)/C(Cc1ccc(Br)s1)=N/O` (stereo not given), the IC50 in the test on HCT-116 was over 10 µM; in the test with EBC-1, over 10 µM; with NCI-H1581, 1.44 µM.

For the compound `O=C(NCC[Se][Se]CCNC(=O)/C(Cc1ccco1)=N/O)/C(Cc1ccco1)=N/O`, the IC50 with HCT-116 was determined as 0.41 µM; with EBC-1 it was 0.45 µM; in the test on NCI-H1581, 0.3 µM.

`O=C(NC1CC[Se][Se]C1)/C(Cc1ccc(O)c(Br)c1)=N/O` (stereo not given): the IC50 in the test with HCT-116, with EBC-1 and in the test with NCI-H1581 was over 10 µM each time.

Take `O=C(NCCSSCCNC(=O)/C(Cc1cccs1)=N/O)/C(Cc1cccs1)=N/O`: the IC50 in the test on HCT-116 is 4.94 µM; in the test on EBC-1, over 10 µM; in the test on NCI-H1581 it was 6.16 µM.

Turning to `O=C(NC1CC[Se]SC1)/C(Cc1ccc(O)cc1)=N/O` (stereo not given), the IC50 is over 10 µM in the test with HCT-116, over 10 µM in the test on EBC-1 and 1.28 µM in the test on NCI-H1581.

With `O=C(NCCSSCCNC(=O)/C(Cc1ccc(Br)o1)=N/O)/C(Cc1ccc(Br)o1)=N/O`, the IC50 is 1.74 µM in the test with HCT-116, over 10 µM in the test on EBC-1 and over 10 µM with NCI-H1581.

With `CC(C)(CNC(=O)/C(Cc1ccc(O)c(Br)c1)=N/O)SSCCNC(=O)/C(Cc1ccc(O)c(Br)c1)=N/O`, the concentration for half-maximal inhibition (IC50) with HCT-116 was 3.52 µM; in the test on EBC-1, over 10 µM; in the test with NCI-H1581, 3.75 µM.

The values are drawn from ChEMBL document CHEMBL5584238, “Psammaplin A analogues with modified disulfide bond targeting histone deacetylases: Synthesis and biological evaluation” (Eur J Med Chem, 2024).
